Data set [1] is described as follows: Plasma protein binding, equilibrium dialysis, human plasma. It is filed as in vitro ADME. To be noted: pH 7.4, equilibrium dialysis (RED) 4 hours at 37° C., read-out: Plasma protein binding, fu, Human. How it is done:
The fraction of unbound compound (fu) in plasma from human or other animal species was determined by equilibrium dialysis at 37° C. for 4 hours using the Rapid Equilibrium Dialysis (RED) device (ThermoFisher Scientific). The test compound at a concentration of 10 μM was added to plasma and dialyzed against isotonic phosphate buffer (67 mM, pH 7.4) over 4 hours at 37° C. After dialysis, compound concentrations in buffer and plasma were quantified by LC-MS/MS. In parallel the stability of the compound in plasma was determined by incubating drug-spiked plasma (10 μM) at 37° C. for 4 hours, meanwhile the control plasma sample was kept in the freezer. The concentration of the compound in both samples was quantified by LC-MS/MS (Waters Corp, Milford, MA, USA).
Background: In equilibrium dialysis free small molecules cross a membrane that holds back macromolecules.

Data set [2] concerns Acinetobacter baumannii NDM-1. In words: Antibiotic susceptibility testing (MIC), AB NDM-1. Conditions: agar or broth dilution (CLSI/EUCAST). It is filed as cell-based. How it is done:
(§1) Antibiotic susceptibility testing was performed using the agar or broth dilution method, in line with the Clinical and Laboratory Standards Institute (CLSI) and European Committee on Antimicrobial Susceptibility Testing (EUCAST) requirements.

In data set [3] the test system is Escherichia coli NDM-7. In words: Antibiotic susceptibility testing (MIC), EC NDM-7. It is filed as cell-based. Conditions: agar or broth dilution (CLSI/EUCAST). How it is done:
as §1
Background: Dilution methods test growth across graded concentrations, often in twofold steps.

Data set [4] has as its target VIM-2 (Escherichia coli, UniProt Q5U7L7). In words: MBL inhibition, FC-5 fluorescence assay, VIM-2. It is filed as biochemical. Conditions: FC-5 cephalosporin substrate, ranges of obtained pIC50, read-out: pIC50 VIM-2 (converted). The method, boiled down: (§2)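 Enzyme activity was followed as the initial rate of fluorescence increase (λex 380, λem 460 nm) as FC-5 was cleaved and released its fluorophore. Values come from variable-slope fits of normalized response against log inhibitor concentration.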

The test system of data set [5] is Escherichia coli NDM-1. In words: Antibiotic susceptibility testing (MIC), EC NDM-1. It is filed as cell-based. To be noted: agar or broth dilution (CLSI/EUCAST). How it is done: as §1
Data set [6] deals with VIM-1 (Pseudomonas aeruginosa, UniProt A0A0F7KYQ8). In words: MBL inhibition, FC-5 fluorescence assay, VIM-1. It is filed as biochemical. Conditions: FC-5 cephalosporin substrate, ranges of obtained pIC50, read-out: pIC50 VIM-1 (converted). Summed up: as §2
The target in data set [7] is NDM-1 (Klebsiella pneumoniae, UniProt C7C422). In words: MBL inhibition, FC-5 fluorescence assay, NDM-1. It is filed as biochemical. Conditions: FC-5 cephalosporin substrate, fluorescence; ranges of obtained pIC50; read-out: pIC50 NDM-1 (converted). The method, boiled down:
as §2

The target in data set [8] is IMP-1 (Serratia marcescens, UniProt P52699). In words: MBL inhibition, FC-5 fluorescence assay, IMP-1. It is filed as biochemical. Conditions: FC-5 cephalosporin substrate, fluorescence; ranges of obtained pIC50; read-out: pIC50 IMP-1 (converted). The method, boiled down:
as §2

Sequence of NDM-1 (C7C422 29-270, looked up, species assumed): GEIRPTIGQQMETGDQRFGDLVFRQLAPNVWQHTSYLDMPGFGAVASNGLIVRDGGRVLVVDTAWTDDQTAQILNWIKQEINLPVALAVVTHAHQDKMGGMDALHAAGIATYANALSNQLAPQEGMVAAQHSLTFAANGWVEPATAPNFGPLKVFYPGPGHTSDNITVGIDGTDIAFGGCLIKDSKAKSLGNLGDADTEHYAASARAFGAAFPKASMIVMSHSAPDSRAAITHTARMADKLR
Sequence of IMP-1 (P52699 19-246, looked up, species assumed): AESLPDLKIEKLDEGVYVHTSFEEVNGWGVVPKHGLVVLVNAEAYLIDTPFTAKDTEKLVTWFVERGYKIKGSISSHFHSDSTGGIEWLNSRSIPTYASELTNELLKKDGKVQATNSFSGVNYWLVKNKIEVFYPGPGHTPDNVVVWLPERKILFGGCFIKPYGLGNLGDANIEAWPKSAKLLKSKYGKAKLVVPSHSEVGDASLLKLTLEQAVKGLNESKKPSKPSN

Take `COc1ncc(-c2c(C(=O)O)[nH]c3c([C@H](C)N4C[C@]5(C[C@@H](CN)C5)OC4=O)cccc23)cc1O` [IC-27, (S)-7-(1-(2-(aminomethyl)-6-oxo-5-oxa-7-azaspiro[3.4]octan-7-yl)ethyl)-3-(5-hydroxy-6-methoxypyridin-3-yl)-1H-indole-2-carboxylic acid]: the fraction unbound at 4 h, 10 μM in data set [1] is 0.05 to 0.25. Besides, the “MIC values AB NDM-1” value in data set [2] was “B (B MIC values 2 ÷ 8)”. In addition, in data set [3], the “MIC values EC NDM-7” value was “A (A = MIC values ≤ 1)”. Further, the IC50 in data set [4] is under 0.1 nM; in data set [6] it was 1 to 10 nM; in data set [7], 0.1 to 1 nM; in data set [8] it was over 10 nM. In addition, the “MIC values EC NDM-1” value in data set [5] is reported as “B (B MIC values 2 ÷ 8)”.

On to `C[C@@H](c1cccc2c(-c3cnn(C)c(=O)c3)c(C(=O)O)[nH]c12)N1C[C@]2(C[C@@H](CN)C2)OC1=O` [IC-28, 7-((S)-1-((2S,4r)-2-(aminomethyl)-6-oxo-5-oxa-7-azaspiro[3.4]octan-7-yl)ethyl)-3-(1-methyl-6-oxo-1,6-dihydropyridazin-4-yl)-1H-indole-2-carboxylic acid], for which, in data set [1], the fraction unbound at 4 h, 10 μM lay within 0.05 to 0.25. Also, in data set [2], the “MIC values AB NDM-1” value was “C (C = MIC values > 8)”. Besides, the “MIC values EC NDM-7” value in data set [3] is recorded as “A (A = MIC values ≤ 1)”. The IC50 in data set [4] was 0.1 to 1 nM; in data set [6] it was 1 to 10 nM; in data set [7] it was 1 to 10 nM; in data set [8], over 10 nM. In addition, in data set [5], the “MIC values EC NDM-1” value is reported as “B (B MIC values 2 ÷ 8)”.

With `C[C@@H](c1cccc2c(-c3cnc(O)c(O)c3)c(C(=O)O)[nH]c12)N1C[C@]2(C[C@@H](CN)C2)OC1=O` [IC-29, 7-((S)-1-((2S,4r)-2-(aminomethyl)-6-oxo-5-oxa-7-azaspiro[3.4]octan-7-yl)ethyl)-3-(5,6-dihydroxypyridin-3-yl)-1H-indole-2-carboxylic acid], the fraction unbound at 4 h, 10 μM in data set [1] was in the range of 0.005 to 0.05. Also, in data set [2], the “MIC values AB NDM-1” value is listed as “C (C = MIC values > 8)”. The “MIC values EC NDM-7” value in data set [3] was “A (A = MIC values ≤ 1)”. For the same compound, the IC50 in data set [4] was 1 to 10 nM; in data set [6], over 10 nM; in data set [7], over 10 nM; in data set [8] it was over 10 nM. Moreover, the “MIC values EC NDM-1” value in data set [5] is “B (B MIC values 2 ÷ 8)”.

As for `C[C@@H](c1cccc2c(-c3ccn(C)c(=O)c3)c(C(=O)O)[nH]c12)N1C[C@]2(C[C@@H](CN)C2)OC1=O` [IC-32, 3-(1-methyl-2-oxo-1,2-dihydropyridin-4-yl)-7-[(1S)-1-[(2r,4r)-2-(aminomethyl)-6-oxo-5-oxa-7-azaspiro[3.4]octan-7-yl]ethyl]-1H-indole-2-carboxylic acid], in data set [1], the fraction unbound at 4 h, 10 μM is over 0.25. Besides, the “MIC values AB NDM-1” value in data set [2] is recorded as “B (B MIC values 2 ÷ 8)”. For the same compound, in data set [3], the “MIC values EC NDM-7” value was “A (A = MIC values ≤ 1)”. Also, the IC50 in data set [4] is 0.1 to 1 nM; in data set [6], 1 to 10 nM; in data set [7], 0.1 to 1 nM; in data set [8] it was over 10 nM. Also, in data set [5], the “MIC values EC NDM-1” value is “B (B MIC values 2 ÷ 8)”.

Take `C[C@@H](c1cccc2c(-c3cn[nH]c(=O)c3)c(C(=O)O)[nH]c12)N1C[C@]2(C[C@@H](CN)C2)OC1=O` [IC-33, 3-(6-oxo-1,6-dihydropyridazin-4-yl)-7-[(1S)-1-[(2r,4r)-2-(aminomethyl)-6-oxo-5-oxa-7-azaspiro[3.4]octan-7-yl]ethyl]-1H-indole-2-carboxylic acid]: the fraction unbound at 4 h, 10 μM in data set [1] is 0.05 to 0.25. In addition, the “MIC values AB NDM-1” value in data set [2] is recorded as “B (B MIC values 2 ÷ 8)”. Moreover, the “MIC values EC NDM-7” value in data set [3] is recorded as “A (A = MIC values ≤ 1)”. Moreover, the IC50 in data set [4] is 0.1 to 1 nM; in data set [6], 1 to 10 nM; in data set [7] it was 1 to 10 nM; in data set [8], over 10 nM. Moreover, in data set [5], the “MIC values EC NDM-1” value is on record as “A (A = MIC values ≤ 1)”.

Regarding `C[C@@H](c1cccc2c(-c3ccnc(N)c3)c(C(=O)O)[nH]c12)N1C[C@]2(C[C@@H](CN)C2)OC1=O` [IC-34, 3-(2-Aminopyridin-4-yl)-7-[(1S)-1-[(2r,4r)-2-(aminomethyl)-6-oxo-5-oxa-7-azaspiro[3.4]octan-7-yl]ethyl]-1H-indole-2-carboxylic acid], the fraction unbound at 4 h, 10 μM in data set [1] is over 0.25. Besides, in data set [2], the “MIC values AB NDM-1” value was “C (C = MIC values > 8)”. Also, in data set [3], the “MIC values EC NDM-7” value is given as “A (A = MIC values ≤ 1)”. For the same compound, the IC50 in data set [4] was 1 to 10 nM; in data set [6] it was 1 to 10 nM; in data set [7] it was over 10 nM; in data set [8], over 10 nM. For the same compound, the “MIC values EC NDM-1” value in data set [5] is listed as “B (B MIC values 2 ÷ 8)”.

Turning to `CNc1cc(-c2c(C(=O)O)[nH]c3c([C@H](C)N4C[C@]5(C[C@@H](CN)C5)OC4=O)cccc23)ccn1` [IC-35, 3-[2-(methylamino)pyridin-4-yl]-7-[(1S)-1-[(2r,4r)-2-(aminomethyl)-6-oxo-5-oxa-7-azaspiro[3.4]octan-7-yl]ethyl]-1H-indole-2-carboxylic acid], the fraction unbound at 4 h, 10 μM in data set [1] was over 0.25. Moreover, the “MIC values AB NDM-1” value in data set [2] is reported as “C (C = MIC values > 8)”. In addition, the “MIC values EC NDM-7” value in data set [3] is “A (A = MIC values ≤ 1)”. Further, the IC50 in data set [4] was 0.1 to 1 nM; in data set [6], 1 to 10 nM; in data set [7], over 10 nM; in data set [8], over 10 nM. Moreover, in data set [5], the “MIC values EC NDM-1” value is on record as “A (A = MIC values ≤ 1)”.

Regarding `CNc1ccc(-c2c(C(=O)O)[nH]c3c([C@H](C)N4C[C@]5(C[C@@H](CN)C5)OC4=O)cccc23)cn1` [IC-36, 3-[6-(methylamino)pyridin-3-yl]-7-[(1S)-1-[(2r,4r)-2-(aminomethyl)-6-oxo-5-oxa-7-azaspiro[3.4]octan-7-yl]ethyl]-1H-indole-2-carboxylic acid], in data set [1], the fraction unbound at 4 h, 10 μM fell in the range of 0.05 to 0.25. Further, the “MIC values AB NDM-1” value in data set [2] is recorded as “B (B MIC values 2 ÷ 8)”. The “MIC values EC NDM-7” value in data set [3] was “A (A = MIC values ≤ 1)”. In addition, the IC50 in data set [4], in data set [6], in data set [7] and in data set [8] was over 10 nM each time. In data set [5], the “MIC values EC NDM-1” value is listed as “A (A = MIC values ≤ 1)”.

Turning to `C[C@@H](c1cccc2c(-c3ccc(N)nc3)c(C(=O)O)[nH]c12)N1C[C@]2(C[C@@H](CN)C2)OC1=O` [IC-37, 3-(6-aminopyridin-3-yl)-7-[(1S)-1-[(2r,4r)-2-(aminomethyl)-6-oxo-5-oxa-7-azaspiro[3.4]octan-7-yl]ethyl]-1H-indole-2-carboxylic acid], in data set [1], the fraction unbound at 4 h, 10 μM lay in the range of 0.05 to 0.25. The “MIC values AB NDM-1” value in data set [2] is reported as “B (B MIC values 2 ÷ 8)”. The “MIC values EC NDM-7” value in data set [3] is “A (A = MIC values ≤ 1)”. Further, the IC50 was 1 to 10 nM in data set [4], over 10 nM in data set [6], 1 to 10 nM in data set [7] and over 10 nM in data set [8]. Further, the “MIC values EC NDM-1” value in data set [5] is recorded as “A (A = MIC values ≤ 1)”.

Consider `C[C@@H](c1cccc2c(-c3ccncc3)c(C(=O)O)[nH]c12)N1C[C@]2(C[C@@H](CN)C2)OC1=O` [IC-38, 3-(pyridin-4-yl)-7-[(1S)-1-[(2r,4r)-2-(aminomethyl)-6-oxo-5-oxa-7-azaspiro[3.4]octan-7-yl]ethyl]-1H-indole-2-carboxylic acid], for which, in data set [1], the fraction unbound at 4 h, 10 μM was in the range of 0.005 to 0.05. Besides, the “MIC values AB NDM-1” value in data set [2] is recorded as “B (B MIC values 2 ÷ 8)”. The “MIC values EC NDM-7” value in data set [3] is given as “A (A = MIC values ≤ 1)”. Also, the IC50 in data set [4] is 0.1 to 1 nM; in data set [6] it was 1 to 10 nM; in data set [7], 0.1 to 1 nM; in data set [8], over 10 nM. Further, the “MIC values EC NDM-1” value in data set [5] was “A (A = MIC values ≤ 1)”.

`C[C@@H](c1cccc2c(-c3cccnc3)c(C(=O)O)[nH]c12)N1C[C@]2(C[C@@H](CN)C2)OC1=O` [IC-39, 3-(pyridin-3-yl)-7-[(1S)-1-[(2r,4r)-2-(aminomethyl)-6-oxo-5-oxa-7-azaspiro[3.4]octan-7-yl]ethyl]-1H-indole-2-carboxylic acid]: the fraction unbound at 4 h, 10 μM in data set [1] was in the range of 0.005 to 0.05. Further, in data set [2], the “MIC values AB NDM-1” value is listed as “B (B MIC values 2 ÷ 8)”. For the same compound, the “MIC values EC NDM-7” value in data set [3] is “A (A = MIC values ≤ 1)”. Also, the IC50 in data set [4] is 1 to 10 nM; in data set [6] it was 0.1 to 1 nM; in data set [7], 0.1 to 1 nM; in data set [8], over 10 nM. Further, the “MIC values EC NDM-1” value in data set [5] is listed as “A (A = MIC values ≤ 1)”.

The record behind these values is patent US20240246913A1, “2-CARBOXYL-INDOLE INHIBITORS OF METALLO-BETA-LACTAMASES” (Oxford University Innovation Limited, priority 2021, published 2024).
